Patent US10800785B2, “Substituted pyrrolo[2,3-d]pyridazin-4-ones and pyrazolo[3,4-d]pyridazin-4-ones as protein kinase inhibitors” (Shanghai Fochon Pharmaceutical Co., Ltd., priority 2016, dated 2020)

Each molecule was assayed on DOHH2 cells (assay: Cell proliferation assay (MTS) in DOHH2 cells, mechanism-based assay for BTK inhibition). Conditions: Homo sapiens, DOHH-2, 120 h incubation, 5000 cells/well.
Text: Cell Proliferation Assays
MTS testing kit was purchased from Promega. The DMEM, Fetal bovine serum and Penicillin-Streptomycin were purchased from Gibco. Dimethyl sulfoxide (DMSO) was purchased from Sigma.
To investigate whether a compound is able to inhibit the activity of BTK in cells, a mechanism-based assay using DOHH2 (DSMZ catalog#: ACC47) and Mino (ATCC® Number CRL-3000™) cells was developed. In this assay, inhibition of BTK was detected by the inhibition of DOHH2 and Mino cell proliferations. DOHH2 or Mino cells were cultured in culture flasks to 40-80% confluence in RPMI-1640 plus 10% fetal bovine serum. C ells were collected and plated onto 96-well plates at desired cell density (DOHH2: 5000 cells/well; Mino: 10000 cells/well). Plates were incubated overnight at 37° C., with 5% CO2 to adhere. Compounds were added to the plates, and the final compound concentrations were 10000, 3333, 1111, […], 41, 14, 4.6 and 1.5 nM. Plates were placed at 37° C., with 5% CO2 for 120 h (DOHH2) or 72 h (Mino). 20 μl MTS/100 μl medium mixture solution were added to each well and the plates were incubated for exactly 2 hours. The reaction was stopped by adding 25 μl 10% SDS per well.
Select compounds prepared as described above were assayed according to the biological procedures described herein.
With `CC#CC(=O)N1CCC[C@@H](c2nn(-c3ccc(Oc4c(F)cccc4F)cc3)c3c(N)n[nH]c(=O)c23)C1` [Example 85, (R)-7-amino-3-(1-(but-2-ynoyl)piperidin-3-yl)-1-(4-(2,6-difluorophenoxy)phenyl)-1,5-dihydro-4H-pyrazolo[3,4-d]pyridazin-4-one] the IC50 was 435 nM. Molecule `CC#CC(=O)N1CCC[C@H](c2cn(-c3ccc(Oc4ccccc4)cc3)c3c(N)n[nH]c(=O)c23)C1` [Example 72, (R)-7-amino-3-(1-(but-2-ynoyl)piperidin-3-yl)-1-(4-phenoxyphenyl)-1,5-dihydro-4H-pyrrolo[2,3-d]pyridazin-4-one] has an IC50 of 260 nM. `CN(C)C/C=C/C(=O)N1CC[C@@H](c2cn(-c3ccc(Oc4ccccc4)cc3)c3c(N)n[nH]c(=O)c23)C1` [Example 93, (S,E)-7-amino-3-(1-(4-(dimethylamino)but-2-enoyl)pyrrolidin-3-yl)-1-(4-phenoxyphenyl)-1,5-dihydro-4H-pyrrolo[2,3-d]pyridazin-4-one] gave an IC50 of 239 nM. For `CC#CC(=O)N1CCC[C@H](c2cn(-c3ccc(Oc4ccccc4F)cc3)c3c(N)n[nH]c(=O)c23)C1` [Example 80, (R)-7-amino-3-(1-(but-2-ynoyl)piperidin-3-yl)-1-(4-(2-fluorophenoxy)phenyl)-1,5-dihydro-4H-pyrrolo[2,3-d]pyridazin-4-one], the IC50 was 450 nM. `C=CC(=O)N1CC[C@H](c2cn(-c3ccc(Oc4cccc(F)c4)cc3)c3c(N)n[nH]c(=O)c23)C1` [Example 24, (R)-3-(1-acryloylpyrrolidin-3-yl)-7-amino-1-(4-(3-fluorophenoxy)phenyl)-1,5-dihydro-4H-pyrrolo[2,3-d]pyridazin-4-one] gave an IC50 of 373 nM. `CC#CC(=O)N1CC[C@@H](c2nn(-c3ccc(Oc4ccccc4F)cc3)c3c(N)n[nH]c(=O)c23)C1` [Example 73, (R)-7-amino-3-(1-(but-2-ynoyl)pyrrolidin-3-yl)-1-(4-(2-fluorophenoxy)phenyl)-1,5-dihydro-4H-pyrazolo[3,4-d]pyridazin-4-one] was tested, and the IC50 was 440 nM. `C=CC(=O)N1CCC(c2cn(-c3ccc(Oc4ccccc4)cc3)c3c(N)n[nH]c(=O)c23)CC1` [Example 112, 3-(1-acryloylpiperidin-4-yl)-7-amino-1-(4-phenoxyphenyl)-1,5-dihydro-4H-pyrrolo[2,3-d]pyridazin-4-one] was tested, and the IC50 was 78 nM. Work on `CC#CC(=O)N1CCC(c2nn(-c3ccc(Oc4ccccc4)cc3)c3c(N)n[nH]c(=O)c23)C1` (stereo not shown) [Example 6, 7-amino-3-(1-(but-2-ynoyl)pyrrolidin-3-yl)-1-(4-phenoxyphenyl)-1,5-dihydro-4H-pyrazolo[3,4-d]pyridazin-4-one] yielded an IC50 of 179 nM. `C=CC(=O)N1CCC[C@@H](c2nn(-c3ccc(Oc4cccc(F)c4F)cc3)c3c(N)n[nH]c(=O)c23)C1` [Example 56, (R)-3-(1-acryloylpiperidin-3-yl)-7-amino-1-(4-(2,3-difluorophenoxy)phenyl)-1,5-dihydro-4H-pyrazolo[3,4-d]pyridazin-4-one] showed an IC50 of 42 nM. `C=CC(=O)N1CC[C@@H](c2nn(-c3ccc(Oc4ccccc4)cc3)c3c(N)n[nH]c(=O)c23)C1` [Example 13, (R)-3-(1-acryloylpyrrolidin-3-yl)-7-amino-1-(4-phenoxyphenyl)-1,5-dihydro-4H-pyrazolo[3,4-d]pyridazin-4-one] showed an IC50 of 107 nM. In the case of `C=CC(=O)N1CCC[C@@H](c2cn(-c3ccc(Oc4ccccc4)cc3)c3c(N)n[nH]c(=O)c23)C1` [Example 11, (S)-3-(1-acryloylpiperidin-3-yl)-7-amino-1-(4-phenoxyphenyl)-1,5-dihydro-4H-pyrrolo[2,3-d]pyridazin-4-one], the IC50 is reported as 40 nM. Molecule `C=CC(=O)N1CCC[C@@H](c2cn(-c3ccc(Oc4ccc(F)cc4)cc3)c3c(N)n[nH]c(=O)c23)C1` [Example 31, (S)-3-(1-acryloylpiperidin-3-yl)-7-amino-1-(4-(4-fluorophenoxy)phenyl)-1,5-dihydro-4H-pyrrolo [2,3-d]pyridazin-4-one] has an IC50 of 167 nM. With `C=CC(=O)N1CCC[C@H](c2nn(-c3ccc(Oc4ccccc4F)cc3)c3c(N)n[nH]c(=O)c23)C1` [Example 59, (S)-3-(1-acryloylpiperidin-3-yl)-7-amino-1-(4-(2-fluorophenoxy)phenyl)-1,5-dihydro-4H-pyrazolo [3,4-d]pyridazin-4-one] the IC50 was 248 nM. With `C=CC(=O)N1CCC[C@H](c2cn(-c3ccc(Oc4ccccc4)cc3)c3c(N)n[nH]c(=O)c23)C1` [Example 12, (R)-3-(1-acryloylpiperidin-3-yl)-7-amino-1-(4-phenoxyphenyl)-1,5-dihydro-4H-pyrrolo[2,3-d]pyridazin-4-one] the IC50 was 74 nM. `C=CC(=O)N1CCC[C@H](c2cn(-c3ccc(Oc4cccc(F)c4)cc3)c3c(N)n[nH]c(=O)c23)C1` [Example 36, (R)-3-(1-acryloylpiperidin-3-yl)-7-amino-1-(4-(3-fluorophenoxy)phenyl)-1,5-dihydro-4H-pyrrolo [2,3-d]pyridazin-4-one] showed an IC50 of 585 nM. Work on `C=CC(=O)N1CCC[C@@H](c2cn(-c3ccc(Oc4c(F)cccc4F)cc3)c3c(N)n[nH]c(=O)c23)C1` [Example 33, (S)-3-(1-acryloylpiperidin-3-yl)-7-amino-1-(4-(2,6-difluorophenoxy)phenyl)-1,5-dihydro-4H-pyrrolo[2,3-d]pyridazin-4-one] yielded an IC50 of 221 nM. In the case of `Nc1n[nH]c(=O)c2c([C@@H]3CCN(C(=O)/C=C/[C@H]4CCN4)C3)cn(-c3ccc(Oc4ccccc4)cc3)c12` [Example 97, 7-amino-3-((S)-1-((E)-3-((R)-azetidin-2-yl)acryloyl)pyrrolidin-3-yl)-1-(4-phenoxyphenyl)-1,5-dihydro-4H-pyrrolo[2,3-d]pyridazin-4-one], the IC50 is reported as 701 nM. `COC/C=C/C(=O)N1CCC[C@@H](c2cn(-c3ccc(Oc4ccccc4)cc3)c3c(N)n[nH]c(=O)c23)C1` [Example 101, (S,E)-7-amino-3-(1-(4-methoxybut-2-enoyl)piperidin-3-yl)-1-(4-phenoxyphenyl)-1,5-dihydro-4H-pyrrolo[2,3-d]pyridazin-4-one] was tested, and the IC50 was 208 nM. Work on `CC#CC(=O)N1CC[C@@H](c2nn(-c3ccc(Oc4ccccc4)cc3)c3c(N)n[nH]c(=O)c23)C1` [Example 65, (R)-7-amino-3-(1-(but-2-ynoyl)pyrrolidin-3-yl)-1-(4-phenoxyphenyl)-1,5-dihydro-4H-pyrazolo[3,4-d]pyridazin-4-one] yielded an IC50 of 505 nM. Work on `CC#CC(=O)N1CCC[C@@H](c2cn(-c3ccc(Oc4ccccc4F)cc3)c3c(N)n[nH]c(=O)c23)C1` [Example 79, (S)-7-amino-3-(1-(but-2-ynoyl)piperidin-3-yl)-1-(4-(2-fluorophenoxy)phenyl)-1,5-dihydro-4H-pyrrolo[2,3-d]pyridazin-4-one] yielded an IC50 of 164 nM. `CC#CC(=O)N1CCC[C@@H](c2cn(-c3ccc(Oc4ccccc4)cc3)c3c(N)n[nH]c(=O)c23)C1` [Example 71, (S)-7-amino-3-(1-(but-2-ynoyl)piperidin-3-yl)-1-(4-phenoxyphenyl)-1,5-dihydro-4H-pyrrolo[2,3-d]pyridazin-4-one] showed an IC50 of 228 nM. `C=CC(=O)N1CC[C@H](c2nn(-c3ccc(Oc4c(F)cccc4F)cc3)c3c(N)n[nH]c(=O)c23)C1` [Example 51, (S)-3-(1-acryloylpyrrolidin-3-yl)-7-amino-1-(4-(2,6-difluorophenoxy)phenyl)-1,5-dihydro-4H-pyrazolo[3,4-d]pyridazin-4-one] gave an IC50 of 215 nM. For `C=CC(=O)N1CCC[C@@H](c2cn(-c3ccc(Oc4cc(F)cc(F)c4)cc3)c3c(N)n[nH]c(=O)c23)C1` [Example 34, (S)-3-(1-acryloylpiperidin-3-yl)-7-amino-1-(4-(3,5-difluorophenoxy)phenyl)-1,5-dihydro-4H-pyrrolo[2,3-d]pyridazin-4-one], the IC50 was 42 nM. `C=CC(=O)N1CCC[C@@H](c2cn(-c3ccc(Oc4cccc(F)c4F)cc3)c3c(N)n[nH]c(=O)c23)C1` [Example 32, (S)-3-(1-acryloylpiperidin-3-yl)-7-amino-1-(4-(2,3-difluorophenoxy)phenyl)-1,5-dihydro-4H-pyrrolo[2,3-d]pyridazin-4-one] showed an IC50 of 58 nM. For `C=CC(=O)N1CC[C@@H](c2cn(-c3ccc(Oc4cc(F)cc(F)c4)cc3)c3c(N)n[nH]c(=O)c23)C1` [Example 22, (S)-3-(1-acryloylpyrrolidin-3-yl)-7-amino-1-(4-(3,5-difluorophenoxy)phenyl)-1,5-dihydro-4H-pyrrolo[2,3-d]pyridazin-4-one], the IC50 was 86 nM. `COC/C=C/C(=O)N1CC[C@@H](c2cn(-c3ccc(Oc4ccccc4)cc3)c3c(N)n[nH]c(=O)c23)C1` [Example 91, (S,E)-7-amino-3-(1-(4-methoxybut-2-enoyl)pyrrolidin-3-yl)-1-(4-phenoxyphenyl)-1,5-dihydro-4H-pyrrolo[2,3-d]pyridazin-4-one] gave an IC50 of 640 nM. With `CC#CC(=O)N1CC[C@H](c2cn(-c3ccc(Oc4ccccc4)cc3)c3c(N)n[nH]c(=O)c23)C1` [Example 68, (R)-7-amino-3-(1-(but-2-ynoyl)pyrrolidin-3-yl)-1-(4-phenoxyphenyl)-1,5-dihydro-4H-pyrrolo [2,3-d]pyridazin-4-one] the IC50 was 146 nM. For `C=CC(=O)N1CCC[C@H](c2cn(-c3ccc(Oc4c(F)cccc4F)cc3)c3c(N)n[nH]c(=O)c23)C1` [Example 39, (R)-3-(1-acryloylpiperidin-3-yl)-7-amino-1-(4-(2,6-difluorophenoxy)phenyl)-1,5-dihydro-4H-pyrrolo[2,3-d]pyridazin-4-one], the IC50 was 31 nM.
